Results taken from patent publication US11452758B2, “Antimicrobial peptide derived from LL37 peptide and uses thereof” (INDUSTRY-ACADEMIC COOPERATION FOUNDATION, CHOSUN UNIVERSITY, priority 2018, dated 2022).
In brackets after ≈: the same amount, converted by molar mass. Where two headings read alike, the source gives them in different places. Where a SMILES comes first, the peptide text is derived from it.

What was measured:
S. aureus ATCC 25923 = type: cell-based, Staphylococcus aureus
From the text: (§1) To compare the antimicrobial activity among the peptides produced by the method of Example 1, the inventors of the present invention measured the minimal growth inhibitory concentration (MIC), which is minimum concentration of the peptide not allowing any […] of bacterial cells.
(§2) Specifically, the bacterial strains described in the following Table 2 were purchased and cultured to a mid-log phase in MHB (Mueller Hinton Broth) medium. Then, after dilution to bacterial cell concentration of 2×10^5 cells/50 μl, the cells were inoculated to a microtiter plate (NUNC, USA). Thereafter, LL37-1, LL37-2, LL37-3 or LL37-4 peptide which has been synthesized in Example 1 above was subjected to serial dilution, ½ times for each, in a 96-well plate. After adding the peptides in an amount of 50 μl to the cell plate, the cells were cultured for 18 hours at 37° C. By using a microtiter plate reader (Merck Elisa reader, Germany), the absorbance was measured at a wavelength of 600 nm to determine the MIC value of each bacterial strain. As a control group, LL37 as a mother peptide was used and subjected to the same process as above to determine the MIC value of each strain.

[1] = tested on: L. monocytogenes KCTC 3710; type: cell-based, Listeria monocytogenes
From the text: as §1, §2

S. typhimurium KCTC 1925 = type: cell-based, Salmonella typhimurium
From the text: as §1, §2

[2] = Cytotoxicity in normal cell line (MTT); type: cell-based, human; conditions: human
Protocol: To determine the cytotoxicity of the peptides produced by the method of Example 1 in normal cell line, cytotoxicity was measured by using normal human keratinocyte cell line (HaCaT) and normal human fibroblast cell line (Hs27).
Specifically, normal human keratinocyte (HaCaT) cells and normal human fibroblast (Hs27) cells, which have been cultured in DMEM medium containing 10% FBS (fetal bovine serum), were aliquoted in a microtiter plate to have 1×10^4 cells per well. After culturing them for 24 hours, the cells were subjected to a treatment with LL37, LL37-1, LL37-2, LL37-3 or LL37-4 peptide, each at concentration of 0.5, 1, 2, 4, 8, 16 or 32 μM/well, followed by reaction for 24 hours in a 5% CO2 incubator. After culture, a reaction solution containing 5 mg/ml MTT (Thiazolyl Blue Tetrazolium Bromide) dissolved in phosphate buffered saline (PBS) was added in an amount of 10 μl to each well and the reaction was allowed to occur for 1 hour. After that, the supernatant was discarded, and, by dissolving MTT crystals that are formed by adding 200 μl DMSO (dimethyl sulfoxide), the absorbance at 570 nm was measured to determine the cell survival ability.

[3] = tested on: Human macrophage cells (U937) infected with Acinetobacter baumannii KCTC 2508; test: Expression of inflammatory cytokines, Western blot and real time RT-PCR; type: cell-based; conditions: U937 infected with A. baumannii KCTC 2508, peptide added 1 hour after infection, sample after 9 hours
Protocol: To see whether or not a change in expression of inflammatory cytokines in macrophage is caused by the peptides that are prepared by the method of above Example 1, determination was made by Western blot and real time reverse transcription polymerase chain reaction.
Specifically, Acinetobacter baumannii KCTC 2508 cells were cultured to a mid-log phase in MHB medium, and then diluted to a cell concentration of 1×10^7 cells/ml in physiological saline. Human macrophage cells (U937) were then infected with the resulting cells in time-dependent manner to yield the first sample, and another macrophage cells were infected with Acinetobacter baumannii KCTC 2508 cells, which have been diluted to a concentration of 1×10^7 cells, and added with, 1 hour after the infection, mother peptide LL37 or the homologous peptide to collect the second sample after 9 hours. Both collected samples were treated with cell lysis buffer to obtain the supernatant (sup) and pellet (lysate). Thereafter, by Western blot and real time reverse transcription polymerase chain reaction, a change in the expression level of inflammatory cytokines was examined.

[4] = tested on: Acinetobacter baumannii KCTC 2508; type: cell-based
Protocol: To determine the activity of the peptides, which have been prepared by the method of Example 1, in the presence of trypsin as one type of proteases, peptide stability against protease was determined by radial diffusion assay.
Specifically, among the bacterial strains that are described in the above Table 2, Acinetobacter baumannii KCTC 2508 cells were cultured to a mid-log phase in MHB medium, and, after diluting the cells to a cell concentration of 2×10^5 cells/10 ml, the cells were admixed with agarose which has been adjusted to final concentration of 1% and then evenly spread and solidified on a Petri dish. After that, the peptide adjusted to a concentration of 100 μg/ml was admixed with 10.7 nM trypsin and reacted for 10 minutes at 37° C. After applying a paper disk (diameter: 6 mm) on the solidified Petri dish, the peptide obtained after the reaction with trypsin was aliquoted thereto in an amount of 25 μl. After culture for 18 hours at 37° C., diameter of the clear zone around the paper disk was measured so that the level of antimicrobial activity for Acinetobacter baumannii KCTC 2508 was determined.

Row | Compound | Minimal inhibitory concentration (S. aureus ATCC 25923; ATCC 25923, 18 h) [µM] | Minimal inhibitory concentration ([1]; KCTC 3710, 18 h) [µM] | Minimal inhibitory concentration (S. typhimurium KCTC 1925; KCTC 1925, 18 h) [µM] | viability at 24 h, 0.5 µM ([2]; HaCaT keratinocyte cells) [%] | viability at 24 h, 1 µM ([2]; HaCaT keratinocyte cells) [%] | viability at 24 h, 2 µM ([2]; HaCaT keratinocyte cells) [%] | viability at 24 h, 4 µM ([2]; HaCaT keratinocyte cells) [%] | viability at 24 h, 8 µM ([2]; HaCaT keratinocyte cells) [%] | viability at 24 h, 16 µM ([2]; HaCaT keratinocyte cells) [%] | viability at 24 h, 32 µM ([2]; HaCaT keratinocyte cells) [%] | viability at 24 h, 0.5 µM ([2]; Hs27 fibroblast cells) [%] | viability at 24 h, 1 µM ([2]; Hs27 fibroblast cells) [%] | viability at 24 h, 2 µM ([2]; Hs27 fibroblast cells) [%] | viability at 24 h, 4 µM ([2]; Hs27 fibroblast cells) [%] | viability at 24 h, 8 µM ([2]; Hs27 fibroblast cells) [%] | viability at 24 h, 16 µM ([2]; Hs27 fibroblast cells) [%] | viability at 24 h, 32 µM ([2]; Hs27 fibroblast cells) [%] | expression level of HMGB-1 and late cytokine (IL-1b and TNF-α) [3] | also measured
1 | CC[C@H](C)[C@H](NC(=O)[C@H](CCCNC(=N)N)NC(=O)[C@H](CCC(N)=O)NC(=O)[C@@H](NC(=O)[C@@H](NC(=O)[C@H](CCCNC(=N)N)NC(=O)[C@H](CCCCN)NC(=O)[C@H](Cc1ccccc1)NC(=O)[C@H](CCCCN)NC(=O)[C@@H](N)CCCCN)[C@@H](C)CC)C(C)C)C(=O)N[C@@H](CCCCN)C(=O)N[C@@H](CC(=O)O)C(=O)N[C@@H](Cc1ccccc1)C(=O)N[C@@H](CC(C)C)C(=O)N[C@@H](CCCNC(=N)N)C(=O)N[C@@H](CC(N)=O)C(N)=O [LL37-2, KKFKRIVQRIKDFLRN-NH2] (H-KKFKRIVQRIKDFLRN-NH2) | – | – | – | – | – | – | – | – | – | – | – | – | – | – | – | – | – | – | Minimal inhibitory concentration (S. aureus ATCC 25923; S. aureus ATCC 25923, MHB, 18 hours at 37° C.): 2 µM (≈ 4.18 µg/mL); Minimal inhibitory concentration ([1]; L. monocytogenes KCTC 3710, MHB, 18 hours at 37° C.): 16 µM (≈ 33.4 µg/mL); Minimal inhibitory concentration (S. typhimurium KCTC 1925; S. typhimurium KCTC 1925, MHB, 18 hours at 37° C.): 4 µM (≈ 8.35 µg/mL); viability at 24 h, 0.5 µM ([2]; HaCaT keratinocyte cells, HaCaT, peptide 0.5 μM, 24 hours, MTT, read-out: Cell survival ability): 100%; viability at 24 h, 1 µM ([2]; HaCaT keratinocyte cells, HaCaT, peptide 1 μM, 24 hours, MTT, read-out: Cell survival ability): 106%; viability at 24 h, 2 µM ([2]; HaCaT keratinocyte cells, HaCaT, peptide 2 μM, 24 hours, MTT, read-out: Cell survival ability): 104%; viability at 24 h, 4 µM ([2]; HaCaT keratinocyte cells, HaCaT, peptide 4 μM, 24 hours, MTT, read-out: Cell survival ability): 102%; viability at 24 h, 8 µM ([2]; HaCaT keratinocyte cells, HaCaT, peptide 8 μM, 24 hours, MTT, read-out: Cell survival ability): 101%; viability at 24 h, 16 µM ([2]; HaCaT keratinocyte cells, HaCaT, peptide 16 μM, 24 hours, MTT, read-out: Cell survival ability): 107%; viability at 24 h, 32 µM ([2]; HaCaT keratinocyte cells, HaCaT, peptide 32 μM, 24 hours, MTT, read-out: Cell survival ability): 107%; viability at 24 h, 0.5 µM ([2]; Hs27 fibroblast cells, Hs27, peptide 0.5 μM, 24 hours, MTT, read-out: Cell survival ability): 92%; viability at 24 h, 1 µM ([2]; Hs27 fibroblast cells, Hs27, peptide 1 μM, 24 hours, MTT, read-out: Cell survival ability): 92%; viability at 24 h, 2 µM ([2]; Hs27 fibroblast cells, Hs27, peptide 2 μM, 24 hours, MTT, read-out: Cell survival ability): 94%; viability at 24 h, 4 µM ([2]; Hs27 fibroblast cells, Hs27, peptide 4 μM, 24 hours, MTT, read-out: Cell survival ability): 91%; viability at 24 h, 8 µM ([2]; Hs27 fibroblast cells, Hs27, peptide 8 μM, 24 hours, MTT, read-out: Cell survival ability): 89%; viability at 24 h, 16 µM ([2]; Hs27 fibroblast cells, Hs27, peptide 16 μM, 24 hours, MTT, read-out: Cell survival ability): 93%; viability at 24 h, 32 µM ([2]; Hs27 fibroblast cells, Hs27, peptide 32 μM, 24 hours, MTT, read-out: Cell survival ability): 97%
2 | CC[C@H](C)[C@H](NC(=O)[C@H](CCCNC(=N)N)NC(=O)[C@H](CCC(N)=O)NC(=O)[C@@H](NC(=O)[C@@H](NC(=O)[C@H](CCCNC(=N)N)NC(=O)[C@H](CCCCN)NC(=O)[C@H](Cc1ccccc1)NC(=O)[C@H](CCC(=O)O)NC(=O)[C@@H](N)CCCCN)[C@@H](C)CC)C(C)C)C(=O)N[C@@H](CCCCN)C(=O)N[C@@H](CCCCN)C(=O)N[C@@H](Cc1ccccc1)C(=O)N[C@@H](CC(C)C)C(=O)N[C@@H](CCCNC(=N)N)C(=O)N[C@@H](CC(N)=O)C(N)=O [LL37-3, KEFKRIVQRIKKFLRN-NH2] (H-KEFKRIVQRIKKFLRN-NH2; N-terminus assumed) | 4 (≈ 8.41 µg/mL) | 64 (≈ 135 µg/mL) | 8 (≈ 16.8 µg/mL) | 96 | 100 | 101 | 98 | 98 | 104 | 104 | 94 | 92 | 93 | 90 | 91 | 93 | 95 | increase in expression level of HMGB-1 and late cytokine is lower | –
3 | CC[C@H](C)[C@H](NC(=O)[C@H](CCCNC(=N)N)NC(=O)[C@H](CCC(N)=O)NC(=O)[C@@H](NC(=O)[C@@H](NC(=O)[C@H](CCCNC(=N)N)NC(=O)[C@H](CCCCN)NC(=O)[C@H](Cc1ccccc1)NC(=O)[C@H](CCCCN)NC(=O)[C@@H](N)CCCCN)[C@@H](C)CC)C(C)C)C(=O)N[C@@H](CCCCN)C(=O)N[C@@H](CCCCN)C(=O)N[C@@H](Cc1ccccc1)C(=O)N[C@@H](CC(C)C)C(=O)N[C@@H](CCCNC(=N)N)C(=O)N[C@@H](CC(N)=O)C(N)=O [LL37-4, KKFKRIVQRIKKFLRN-NH2] (H-KKFKRIVQRIKKFLRN-NH2; N-terminus assumed) | 2 (≈ 4.2 µg/mL) | 16 (≈ 33.6 µg/mL) | 4 (≈ 8.41 µg/mL) | 100 | 103 | 97 | 96 | 92 | 94 | 101 | 94 | 94 | 97 | 90 | 93 | 96 | 93 | increase in expression level of HMGB-1 and late cytokine is lower | decrease in clear zone compared to no treatment with trypsin ([4]; KCTC 2508, 18 h): 1.75 mm; antimicrobial activity after reaction with trypsin ([4]; peptide 100 μg/ml with 10.7 nM trypsin, 10 minutes at 37° C., A. baumannii KCTC 2508): showed the antimicrobial activity
